ChEMBL document CHEMBL1146031, “N-acylated sulfonamide sodium salt: a prodrug of choice for the bifunctional 2-hydroxymethyl-4-(5-phenyl-3-trifluoromethyl-pyrazol-1-yl) benzenesulfonamide class of COX-2 inhibitors” (Bioorg Med Chem Lett, 2006)
Where “and” joins values, the source holds several entries; their conditions need not be identical. Equal values may be shown once. Calls of active or inactive are those of the source. No cut-off for these calls is given here.

Assays:
Rattus norvegicus [1] = experiment: Anti-inflammatory activity in orally dosed Wistar rat assessed as reduction of carrageenan-induced paw edema at 30 mg/kg, po; type: functional
[2] = target: T1, Prostaglandin G/H synthase 2 (Homo sapiens) (UniProt P35354); experiment: Inhibition of human recombinant COX2 expressed in sf9 cells infected with baculovirus at 10 uM
T1 sequence (whole entry): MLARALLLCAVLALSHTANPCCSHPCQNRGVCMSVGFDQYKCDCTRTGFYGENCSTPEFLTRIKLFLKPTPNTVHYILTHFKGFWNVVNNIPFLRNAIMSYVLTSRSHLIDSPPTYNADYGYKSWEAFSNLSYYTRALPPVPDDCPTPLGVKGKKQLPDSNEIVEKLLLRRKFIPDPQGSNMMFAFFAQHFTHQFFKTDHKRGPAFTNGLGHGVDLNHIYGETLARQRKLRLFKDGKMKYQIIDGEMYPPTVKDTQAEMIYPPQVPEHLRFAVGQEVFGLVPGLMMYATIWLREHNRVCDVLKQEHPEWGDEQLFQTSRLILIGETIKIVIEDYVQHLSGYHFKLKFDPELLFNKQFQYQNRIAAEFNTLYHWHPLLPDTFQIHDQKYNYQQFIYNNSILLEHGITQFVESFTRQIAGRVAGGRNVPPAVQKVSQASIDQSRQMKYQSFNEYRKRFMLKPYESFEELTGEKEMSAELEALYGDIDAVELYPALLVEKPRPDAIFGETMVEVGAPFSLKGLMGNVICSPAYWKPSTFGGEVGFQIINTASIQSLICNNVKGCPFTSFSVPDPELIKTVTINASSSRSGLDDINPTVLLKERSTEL

[3] = target: Prostaglandin G/H synthase 1 (Ovis aries) (UniProt P05979); experiment: Inhibition of microsomal COX1 at 10 uM
Sequence of Prostaglandin G/H synthase 1 (Ovis aries) (P05979 whole entry, looked up): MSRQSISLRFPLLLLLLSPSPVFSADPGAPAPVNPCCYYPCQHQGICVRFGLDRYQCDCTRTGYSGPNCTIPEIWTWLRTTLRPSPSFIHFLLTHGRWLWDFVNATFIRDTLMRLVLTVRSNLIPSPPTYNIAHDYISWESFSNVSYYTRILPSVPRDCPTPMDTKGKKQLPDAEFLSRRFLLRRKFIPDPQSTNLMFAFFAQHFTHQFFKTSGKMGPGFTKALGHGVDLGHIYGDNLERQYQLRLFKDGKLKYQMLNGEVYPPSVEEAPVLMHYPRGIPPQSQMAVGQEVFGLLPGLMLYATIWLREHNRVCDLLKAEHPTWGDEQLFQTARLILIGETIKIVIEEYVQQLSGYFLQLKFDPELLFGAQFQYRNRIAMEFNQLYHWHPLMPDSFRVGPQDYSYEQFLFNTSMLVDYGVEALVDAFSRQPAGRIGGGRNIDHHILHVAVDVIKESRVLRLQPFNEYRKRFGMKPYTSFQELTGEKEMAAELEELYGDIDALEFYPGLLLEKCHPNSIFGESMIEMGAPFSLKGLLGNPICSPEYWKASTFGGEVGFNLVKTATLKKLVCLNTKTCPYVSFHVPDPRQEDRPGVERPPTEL

Rattus norvegicus [4] = experiment: Anti-inflammatory activity in orally dosed Wistar rat assessed as reduction of carrageenan-induced paw edema; type: functional; settings: po; for Inhibition: 30 mg/kg
[5] = AUC in Wistar rat at 100 mg/kg, po; type: ADME, organism-based; parameters: dose 100 mg/kg, route oral; settings: plasma
[6] = AUC (0-infinity) in Wistar rat at 100 mg/kg, po; type: ADME, organism-based; parameters: time infinity, dose 100 mg/kg, route oral; settings: plasma
[7] = Cmax in Wistar rat at 100 mg/kg, po; type: ADME, organism-based; parameters: dose 100 mg/kg, route oral; settings: in vivo
[8] = Tmax in Wistar rat at 100 mg/kg, po; type: ADME, organism-based; parameters: dose 100 mg/kg, route oral; settings: in vivo
[9] = Terminal half life in Wistar rat at 100 mg/kg, po; type: ADME, organism-based; parameters: dose 100 mg/kg, route oral; settings: in vivo
Rattus norvegicus [10] = experiment: Anti-inflammatory activity in orally dosed Wistar rat assessed as reduction of carrageenan-induced paw edema at 1 mg/kg, po; type: functional, organism-based; parameters: dose 1 mg/kg
Rattus norvegicus [11] = experiment: Anti-inflammatory activity in orally dosed Wistar rat assessed as reduction of carrageenan-induced paw edema at 3 mg/kg, po; type: functional, organism-based; parameters: dose 3 mg/kg
Rattus norvegicus [12] = experiment: Anti-inflammatory activity in orally dosed Wistar rat assessed as reduction of carrageenan-induced paw edema at 10 mg/kg, po; type: functional, organism-based; parameters: dose 10 mg/kg
Rattus norvegicus [13] = experiment: Anti-inflammatory activity in orally dosed Wistar rat assessed as reduction of carrageenan-induced paw edema at 0.3 mg/kg, po; type: functional

Structure (SMILES)	inhibition at 30 mg/kg (Rattus norvegicus [1])	inhibition [2]	inhibition [3]	ED50 (Rattus norvegicus [4])	further results
CCC(=O)[N-]S(=O)(=O)c1ccc(-n2nc(C(F)(F)F)cc2-c2ccc(SC)cc2)cc1COC(=O)CC.[Na+]	40%	–	–	–	–
CCC(=O)OCc1cc(-n2nc(C(F)F)cc2-c2ccc(Br)cc2)ccc1S(N)(=O)=O	40%	55%	5%	–	–
CCC(=O)NS(=O)(=O)c1ccc(-n2nc(C(F)(F)F)cc2-c2ccc(OC)c(C)c2)cc1COC(=O)CC [listing 1 of 2 here]	–	10% and 5%	0%	–	–
CCCC(=O)[N-]S(=O)(=O)c1ccc(-n2nc(C(F)(F)F)cc2-c2ccc(C)cc2)cc1.[Na+]	–	2%	0%	6.64 mg/kg	–
CSc1ccc(-c2cc(C(F)(F)F)nn2-c2ccc(S(N)(=O)=O)c(CO)c2)cc1	47%	–	–	–	–
CCC(=O)NS(=O)(=O)c1ccc(-n2nc(C(F)(F)F)cc2-c2ccc(Br)cc2)cc1COC(=O)CC [listing 1 of 2 here]	–	25% and 35%	0%	–	–
CCC(=O)NS(=O)(=O)c1ccc(-n2nc(C(F)(F)F)cc2-c2ccc(SC)cc2)cc1COC(=O)CC [listing 1 of 2 here]	–	18% and 25%	0%	–	–
CCC(=O)[N-]S(=O)(=O)c1ccc(-n2nc(C(F)(F)F)cc2-c2ccc3c(c2)CCO3)cc1CO.[Na+]	–	25%	5%	7.5 mg/kg	–
CCC(=O)[N-]S(=O)(=O)c1ccc(-n2nc(C(F)(F)F)cc2-c2ccc(OC)c(C)c2)cc1CO.[Na+]	–	15%	0%	6.2 mg/kg	AUC [5]: 125 µg·h/mL; AUC(0-inf) [6]: 149 µg·h/mL; Cmax [7]: 9320 ng/mL; Tmax [8]: 3.78 h; half-life [9]: 6.82 h
CCC(=O)OCc1cc(-n2nc(C(F)F)cc2-c2ccc(OC)c(C)c2)ccc1S(N)(=O)=O	–	75%	0%	15 mg/kg	–
CCC(=O)NS(=O)(=O)c1ccc(-n2nc(C(F)F)cc2-c2ccc(OC)c(C)c2)cc1COC(=O)CC [listing 1 of 2 here]	42%	–	–	–	–
CCC(=O)OCc1cc(-n2nc(C(F)(F)F)cc2-c2ccc(Br)cc2)ccc1S(N)(=O)=O	–	65%	0%	17 mg/kg	–
CCC(=O)NS(=O)(=O)c1ccc(-n2nc(C(F)(F)F)cc2-c2ccc3c(c2)CCC3)cc1COC(=O)CC [listing 1 of 2 here]	–	–	–	–	Inhibition (Rattus norvegicus [4]): 64%
NS(=O)(=O)c1ccc(-n2nc(C(F)(F)F)cc2-c2ccc3c(c2)CCC3)cc1CO	–	–	–	23.5 mg/kg	–
CCC(=O)OCc1cc(-n2nc(C(F)(F)F)cc2-c2ccc(SC)cc2)ccc1S(N)(=O)=O	–	40%	0%	–	Inhibition (Rattus norvegicus [4]): 60%; Activity (Rattus norvegicus [10]): inactive; Activity (Rattus norvegicus [11]): inactive; Activity (Rattus norvegicus [12]): inactive
CCC(=O)[N-]S(=O)(=O)c1ccc(-n2nc(C(F)(F)F)cc2-c2ccc(Br)cc2)cc1CO.[Na+]	–	23%	0%	7.2 mg/kg	–
CCC(=O)NS(=O)(=O)c1ccc(-n2nc(C(F)F)cc2-c2ccc(OC)c(C)c2)cc1COC(=O)CC [listing 2 of 2 here]	–	–	0%	–	–
NS(=O)(=O)c1ccc(-n2nc(C(F)(F)F)cc2-c2ccc(Br)cc2)cc1CO	35%	–	–	–	–
CCC(=O)[N-]S(=O)(=O)c1ccc(-n2nc(C(F)F)cc2-c2ccc(OC)c(C)c2)cc1CO.[Na+]	–	13%	0%	6.3 mg/kg	AUC [5]: 106 µg·h/mL; AUC(0-inf) [6]: 114 µg·h/mL; Cmax [7]: 7540 ng/mL; Tmax [8]: 2.82 h; half-life [9]: 5.92 h
CCC(=O)NS(=O)(=O)c1ccc(-n2nc(C(F)F)cc2-c2ccc(Br)cc2)cc1COC(=O)CC [listing 1 of 2 here]	45%	–	–	–	–
CCC(=O)[N-]S(=O)(=O)c1ccc(-n2nc(C(F)(F)F)cc2-c2ccc3c(c2)CCO3)cc1COC(=O)CC.[Na+]	43%	–	–	–	–
CCC(=O)[N-]S(=O)(=O)c1ccc(-n2nc(C(F)(F)F)cc2-c2ccc(Br)cc2)cc1COC(=O)CC.[Na+]	–	–	–	12.5 mg/kg	–
CCC(=O)NS(=O)(=O)c1ccc(-n2nc(C(F)(F)F)cc2-c2ccc3c(c2)CCO3)cc1COC(=O)CC [listing 1 of 2 here]	25%	–	–	–	–

Structure (SMILES)	inhibition at 30 mg/kg (Rattus norvegicus [1])	inhibition [2]	inhibition [3]	ED50 (Rattus norvegicus [4])	further results
NS(=O)(=O)c1ccc(-n2nc(C(F)(F)F)cc2-c2ccc3c(c2)CCO3)cc1CO	–	–	–	22.3 mg/kg	–
CCC(=O)[N-]S(=O)(=O)c1ccc(-n2nc(C(F)F)cc2-c2ccc(OC)c(C)c2)cc1COC(=O)CC.[Na+]	32%	–	–	–	–
CCC(=O)[N-]S(=O)(=O)c1ccc(-n2nc(C(F)(F)F)cc2-c2ccc(SC)cc2)cc1CO.[Na+]	36%	21%	0%	–	–
CCC(=O)NS(=O)(=O)c1ccc(-n2nc(C(F)(F)F)cc2-c2ccc3c(c2)CCO3)cc1COC(=O)CC [listing 2 of 2 here]	–	2% and 12%	0%	–	–
COc1ccc(-c2cc(C(F)(F)F)nn2-c2ccc(S(N)(=O)=O)c(CO)c2)cc1C	–	–	–	21.7 mg/kg	AUC [5]: 73.7 µg·h/mL; AUC(0-inf) [6]: 112 µg·h/mL; Cmax [7]: 6370 ng/mL; Tmax [8]: 3.5 h; half-life [9]: 6.63 h
Cc1ccc(-c2cc(C(F)(F)F)nn2-c2ccc(S(N)(=O)=O)cc2)cc1 [CELECOXIB]	–	–	–	6.7 mg/kg	–
CCC(=O)OCc1cc(-n2nc(C(F)(F)F)cc2-c2ccc(OC)c(C)c2)ccc1S(N)(=O)=O	–	–	12%	10.9 mg/kg	–
CCC(=O)NS(=O)(=O)c1ccc(-n2nc(C(F)(F)F)cc2-c2ccc(OC)c(C)c2)cc1COC(=O)CC [listing 2 of 2 here]	48%	–	–	–	–
CCC(=O)NS(=O)(=O)c1ccc(-n2nc(C(F)(F)F)cc2-c2ccc3c(c2)CCC3)cc1COC(=O)CC [listing 2 of 2 here]	–	–	0%	–	Activity (Rattus norvegicus [10]): inactive; Activity (Rattus norvegicus [11]): inactive; Activity (Rattus norvegicus [12]): inactive
CCC(=O)[N-]S(=O)(=O)c1ccc(-c2c(-c3ccccc3)noc2C)cc1.[Na+] [PARECOXIB SODIUM]	–	–	–	–	inhibition at 0.3 mg/kg (Rattus norvegicus [13]): 98%
CCC(=O)NS(=O)(=O)c1ccc(-n2nc(C(F)(F)F)cc2-c2ccc(Br)cc2)cc1COC(=O)CC [listing 2 of 2 here]	37%	–	–	–	–
CCC(=O)OCc1cc(-n2nc(C(F)(F)F)cc2-c2ccc3c(c2)CCC3)ccc1S(N)(=O)=O	30%	57%	0%	–	–
NS(=O)(=O)c1ccc(-n2nc(C(F)F)cc2-c2ccc(Br)cc2)cc1CO	42%	–	–	–	AUC [5]: 239 µg·h/mL; AUC(0-inf) [6]: 265 µg·h/mL; Cmax [7]: 20800 ng/mL; Tmax [8]: 2.67 h; half-life [9]: 7.51 h
CCC(=O)[N-]S(=O)(=O)c1ccc(-n2nc(C(F)(F)F)cc2-c2ccc(OC)c(C)c2)cc1COC(=O)CC.[Na+]	34%	–	–	–	–
CCC(=O)OCc1cc(-n2nc(C(F)(F)F)cc2-c2ccc3c(c2)CCO3)ccc1S(N)(=O)=O	–	61%	0%	8.5 mg/kg	–
CCC(=O)[N-]S(=O)(=O)c1ccc(-n2nc(C(F)F)cc2-c2ccc(Br)cc2)cc1COC(=O)CC.[Na+]	–	–	–	7.9 mg/kg	–
CCC(=O)NS(=O)(=O)c1ccc(-n2nc(C(F)F)cc2-c2ccc(Br)cc2)cc1COC(=O)CC [listing 2 of 2 here]	–	12% and 25%	0% and 1%	–	–
CCC(=O)NS(=O)(=O)c1ccc(-n2nc(C(F)(F)F)cc2-c2ccc(SC)cc2)cc1COC(=O)CC [listing 2 of 2 here]	38%	–	–	–	–
COc1ccc(-c2cc(C(F)F)nn2-c2ccc(S(N)(=O)=O)c(CO)c2)cc1C	–	–	–	18.5 mg/kg	AUC [5]: 2.4 µg·h/mL; Cmax [7]: 700 ng/mL; Tmax [8]: 2.25 h
CCC(=O)[N-]S(=O)(=O)c1ccc(-n2nc(C(F)F)cc2-c2ccc(Br)cc2)cc1CO.[Na+]	–	14%	0%	5.6 mg/kg	AUC [5]: 289 µg·h/mL; AUC(0-inf) [6]: 321 µg·h/mL; Cmax [7]: 28400 ng/mL; Tmax [8]: 2.85 h; half-life [9]: 7.42 h
CCC(=O)[N-]S(=O)(=O)c1ccc(-n2nc(C(F)(F)F)cc2-c2ccc3c(c2)CCC3)cc1CO.[Na+]	–	22%	0%	–	Inhibition (Rattus norvegicus [4]): 52%; Activity (Rattus norvegicus [10]): inactive; Activity (Rattus norvegicus [11]): inactive; Activity (Rattus norvegicus [12]): inactive
CCC(=O)[N-]S(=O)(=O)c1ccc(-n2nc(C(F)(F)F)cc2-c2ccc3c(c2)CCC3)cc1COC(=O)CC.[Na+]	41%	–	–	–	–
